Reference: US12049583B2, “Compound, composition for anisotropic dye films including the compound, anisotropic dye film, and optical element” (Mitsubishi Chemical Corporation, priority 2020, dated 2024)

Key:
[1] = Solubility of the dye in cyclopentanone (concentration of cyclopentanone-saturated solution by HPLC); format: physicochemical
Experimental: To 103 mg of cyclopentanone, 3 mg of the dye (IV-1) was added, and the resulting mixture was stirred at 80° C. for 5 minutes. The mixture was left to stand for 1 hour at room temperature. The resulting liquid mixture was filtered with a syringe equipped with a syringe filter (produced by Membrane Solutions Limited, PTFE13045, diameter: 0.45 μm). Hereby, a cyclopentanone-saturated solution of the dye (IV-1) was prepared. The above solution was diluted with 746 mg of tetrahydrofuran, and the concentration of the solution was determined using HPLC (L-2300 Series produced by Hitachi High-Technologies Corporation). A 0.1-mass % tetrahydrofuran solution of the dye (IV-1) was prepared, and a calibration curve was prepared at an absorption wavelength of 254 nm. The concentration of the cyclopentanone-saturated solution was measured using the above calibration curve.

[2] = Solubility of the dye in toluene (concentration of toluene-saturated solution by HPLC); format: physicochemical
Experimental: To 101 mg of toluene, 3 mg of the dye (II-1) was added, and the resulting mixture was stirred at 80° C. for 5 minutes. The mixture was left to stand for 1 hour at room temperature. The resulting liquid mixture was filtered with a syringe equipped with a syringe filter (produced by Membrane Solutions Limited, PTFE13045, diameter: 0.45 μm). Hereby, a toluene-saturated solution of the dye (II-1) was prepared. The above solution was diluted with 767 mg of tetrahydrofuran, and the concentration of the solution was determined using HPLC (L-2300 Series produced by Hitachi High-Technologies Corporation). A 0.1-mass % tetrahydrofuran solution of the dye (II-1) was prepared, and a calibration curve was prepared at an absorption wavelength of 254 nm. Table 1 lists the results of measurement of the concentration of the toluene-saturated solution using the above calibration curve.

[3] = cyclopentanone-saturated solution, stirred at 80° C. 5 min, left 1 hour at room temperature, filtered, HPLC 254 nm
[4] = toluene-saturated solution, stirred at 80° C. 5 min, left 1 hour at room temperature, filtered, HPLC 254 nm

| SMILES | Solubility of the dye in cyclopentanone [1, 3] | Solubility of the dye in toluene [2, 4] | further results |
| --- | --- | --- | --- |
| CCN(CC)c1ccc(/N=N/c2nc3sc(/N=N/c4ccc(OCCC(C)CC(C)(C)C)cc4)cc3s2)cc1 (centres unmarked) [II-3] | 0.3 mass % | – | Solubility of the dye in cyclopentanone ([1]; measured as for dye (IV-1), detection absorption wavelength 254 nm): 0.3% |
| CCN(CC)c1ccc(/N=N/c2ccc(/N=N/c3nc4sc(CCC(C)CC(C)(C)C)cc4s3)cc2)cc1 (centres unmarked) [II-1] | – | 0.5 mass % | – |
| CCN(CC)c1ccc(/N=N/c2ccc(/N=N/c3nc4sc(CCC(C)C)cc4s3)cc2)cc1 [II-2] | – | 0.7 mass % | Solubility of the dye in toluene ([2]; measured as for dye (II-1), detection absorption wavelength 254 nm): 0.7% |

More lines, main results first:

| Solubility of the dye in cyclopentanone [1, 3] | Solubility of the dye in toluene [2, 4] | SMILES | further results |
| --- | --- | --- | --- |
| 2.2 mass % | – | CCCCSc1nnc(/N=N/c2ccc(/N=N/c3ccc(N(CC)CC)cc3)cc2)s1 [IV-2] | – |
| 1.8 mass % | – | CCN(CC)c1ccc(/N=N/c2ccc(/N=N/c3cc(C)ns3)cc2)cc1 [IV-4] | – |
| 2.7 mass % | – | CCN(CC)c1ccc(/N=N/c2ccc(/N=N/c3sc(C)cc3C#N)cc2)cc1 [IV-3] | – |
